The values below are quoted from earlier work in patent US20040142045A1, “THERAPEUTIC TREATMENT FOR BLOOD SUGAR REGULATION” (priority 2003, published 2004).

Read-outs that look alike come from different tables or passages of the source.

For data set [1] the following is noted: animal models of insulin resistance and Type 2 diabetic patients.
For data set [2] the following is noted: diabetic animals.
Data set [3] deals with glucokinase. The note with it: supplementation.
For data set [4] the following is noted: insulin dependent diabetes mellitus.
The conditions of data set [5]: experimental animals.
The conditions of data set [6]: Type 1 and Type 2 diabetics, supplementation.
The conditions of data set [7]: diabetics, dietary supplementation.
The conditions of data set [8]: another study, supplementation.
The conditions of data set [9]: mice with abnormally high glucose concentrations.

As for `O=C(O)CCCCC1CCSS1` (stereo not drawn) [Alpha lipoic acid], the “insulin regulated glucose disposal” value in [1] is reported as “improve”. In [2], the blood glucose levels result is listed as “lower” and the “glucose uptake into the peripheral tissues” value is “enhanced”.

Turning to `O=C(O)CCCC[C@@H]1SC[C@@H]2NC(=O)N[C@@H]21` [Biotin], the activity of glucokinase entry in [3] is recorded as “increase”. In addition, the “fasting blood glucose levels” value in [4] was “significant reduction”.

Turning to `NC(=O)c1cccnc1` [Nicotinamide], the development of diabetes entry in data set [5] is reported as “prevent”.

As for `[Zn]` [Zinc], the insulin levels entry in data set [6] was “improve”.

As to `[Cr]` [chromium], the “fasting blood glucose levels” value in data set [7] is on record as “decrease”.

In the case of `O=S(=O)([O-])[O-].[O]=[V+2]` [vanadyl sulfate], the “fasting blood glucose and hepatic insulin resistance” value in [8] is “modest reductions”.

Take methylhydroxy chalcone polymer: the glucose concentrations entry in data set [9] was “fell dramatically”.
